Data taken from ChEMBL document CHEMBL1833855, “A facile synthesis of carbocycle-fused mono and bis-1,2,3-selenadiazoles and their antimicrobial and antimycobacterial studies” (2011).
Converted amounts (≈) assume the structure as drawn.

Experiments:
[1] = system: Escherichia coli; assay: Antibacterial activity against Escherichia coli ATCC 25922 after 18 to 24 hrs by NCCLS M7-A5 based agar dilution method; format: functional
[2] = system: Escherichia coli; assay: Antibacterial activity against Escherichia coli ATCC 25922 assessed as zone of inhibition at 100 ug/disc after 24 hrs by agar disc diffusion method; format: functional; details: ATCC 25922, 24 h, read-out: DIZ
[3] = system: Staphylococcus aureus; assay: Antibacterial activity against Staphylococcus aureus ATCC 11632 after 18 to 24 hrs by NCCLS M7-A5 based agar dilution method; format: functional
[4] = system: Staphylococcus aureus; assay: Antibacterial activity against Staphylococcus aureus ATCC 11632 assessed as zone of inhibition at 100 ug/disc after 24 hrs by agar disc diffusion method; format: functional; details: ATCC 11632, 24 h, read-out: DIZ
[5] = system: Candida albicans; assay: Antifungal activity against Candida albicans ATCC 90028 after 18 to 24 hrs by NCCLS M7-A5 based agar dilution method; format: functional
[6] = system: Candida albicans; assay: Antifungal activity against Candida albicans ATCC 90028 assessed as zone of inhibition at 100 ug/disc after 48 hrs by agar disc diffusion method; format: functional; details: ATCC 90028, 48 h, read-out: DIZ
[7] = system: Mycobacterium tuberculosis; assay: Antituberculosis activity against 10^7 cfu/mL Mycobacterium tuberculosis H37Rv after 28 days; format: functional; details: 672 h
[8] = system: Escherichia coli; assay: microbe, parasite or virus in culture; details: ATCC 25922, 24 h, read-out: DIZ
Description: Antibacterial activity against Escherichia coli ATCC 25922 assessed as zone of inhibition at 10 ug/disc after 24 hrs by agar disc diffusion method

[9] = system: Staphylococcus aureus; assay: microbe, parasite or virus in culture; details: ATCC 11632, 24 h, read-out: DIZ
Description: Antibacterial activity against Staphylococcus aureus ATCC 11632 assessed as zone of inhibition at 10 ug/disc after 24 hrs by agar disc diffusion method

| Compound | MIC [1] | zone of inhibition at 100 µg/disc [2] | MIC [3] | zone of inhibition at 100 µg/disc [4] | MIC [5] | zone of inhibition at 100 µg/disc [6] | MIC [7] | zone of inhibition at 10 µg/disc [8] | zone of inhibition at 10 µg/disc [9] |
| --- | --- | --- | --- | --- | --- | --- | --- | --- | --- |
| COc1ccc(-c2nn[se]c2[C@@H](c2ccc(Cl)cc2)[C@@H]2CCCc3[se]nnc32)cc1 | 12.5 µg/mL (≈ 22.8 µM) | 18 mm | 25 µg/mL (≈ 45.6 µM) | 18 mm | 25 µg/mL (≈ 45.6 µM) | 15 mm | 45.5 µM (≈ 25 µg/mL) |  |  |
| O=C(C[C@@H](c1ccccc1)[C@@H]1CCCc2[se]nnc21)c1ccc2ccccc2c1 | 25 µg/mL (≈ 56.1 µM) | 10 mm | 25 µg/mL (≈ 56.1 µM) | 15 mm | 50 µg/mL (≈ 112 µM) | 10 mm | 28 µM (≈ 12.5 µg/mL) |  |  |
| Cc1ccc(-c2nn[se]c2[C@@H](c2ccc(Cl)cc2)[C@@H]2CCCc3[se]nnc32)cc1 | 25 µg/mL (≈ 46.9 µM) | 15 mm | 25 µg/mL (≈ 46.9 µM) | 15 mm | 12.5 µg/mL (≈ 23.5 µM) | 15 mm | 23.5 µM (≈ 12.5 µg/mL) |  |  |
| c1ccc(-c2nn[se]c2[C@@H](c2ccccc2)[C@@H]2CCCc3[se]nnc32)cc1 | 25 µg/mL (≈ 51.6 µM) | 12 mm | 25 µg/mL (≈ 51.6 µM) | 15 mm | 25 µg/mL (≈ 51.6 µM) | 15 mm | 51.6 µM (≈ 25 µg/mL) |  |  |
| O=C(C[C@@H](c1ccccc1)[C@@H]1CCCc2[se]nnc21)c1ccccc1 | 12.5 µg/mL (≈ 31.6 µM) | 18 mm | 12.5 µg/mL (≈ 31.6 µM) | 15 mm | 25 µg/mL (≈ 63.2 µM) | 15 mm | 15.8 µM (≈ 6.25 µg/mL) |  |  |
| CO[C@H]1/C=C/O[C@@]2(C)Oc3c(C)c(O)c4c(O)c(c(/C=N/N5CCN(C)CC5)c(O)c4c3C2=O)NC(=O)/C(C)=C\C=C\[C@H](C)[C@H](O)[C@@H](C)[C@@H](O)[C@@H](C)[C@H](OC(C)=O)[C@@H]1C [RIFAMPIN] |  |  |  |  |  |  | 0.1 µM (≈ 0.0823 µg/mL) |  |  |
| Cc1ccc(C(=O)C[C@@H](c2ccccc2)[C@@H]2CCCc3[se]nnc32)cc1 | 12.5 µg/mL (≈ 30.5 µM) | 17 mm | 25 µg/mL (≈ 61.1 µM) | 18 mm | 25 µg/mL (≈ 61.1 µM) | 12 mm |  |  |  |
| CC[C@@H](CO)NCCN[C@@H](CC)CO [ETHAMBUTOL] |  |  |  |  |  |  | 7.6 µM (≈ 1.55 µg/mL) |  |  |
| O=C(O)c1cn(C2CC2)c2cc(N3CCNCC3)c(F)cc2c1=O [CIPROFLOXACIN] |  |  |  |  |  |  |  | 28 mm | 25 mm |
| O=C(C[C@@H](c1ccc(Cl)cc1)[C@@H]1CCCc2[se]nnc21)c1ccccc1 | 12.5 µg/mL (≈ 29.1 µM) | 18 mm | 12.5 µg/mL (≈ 29.1 µM) | 16 mm | 25 µg/mL (≈ 58.2 µM) | 15 mm | 3.6 µM (≈ 1.55 µg/mL) |  |  |
| O=C(C[C@@H](c1ccccc1)[C@@H]1CCCc2[se]nnc21)c1ccc(Cl)cc1 | 25 µg/mL (≈ 58.2 µM) | 10 mm | 12.5 µg/mL (≈ 29.1 µM) | 15 mm | 12.5 µg/mL (≈ 29.1 µM) | 15 mm | 7.2 µM (≈ 3.09 µg/mL) |  |  |
| Clc1ccc(-c2nn[se]c2[C@@H](c2ccccc2)[C@@H]2CCCc3[se]nnc32)cc1 | 25 µg/mL (≈ 48.2 µM) | 13 mm | 25 µg/mL (≈ 48.2 µM) | 10 mm | 25 µg/mL (≈ 48.2 µM) | 13 mm | 48.2 µM (≈ 25 µg/mL) |  |  |
| O=C(C[C@@H](c1ccc(Cl)cc1)[C@@H]1CCCc2[se]nnc21)c1ccc(Cl)cc1 | 6.25 µg/mL (≈ 13.5 µM) | 20 mm | 6.25 µg/mL (≈ 13.5 µM) | 20 mm | 12.5 µg/mL (≈ 26.9 µM) | 15 mm | 3.3 µM (≈ 1.53 µg/mL) |  |  |
| Clc1ccc(-c2nn[se]c2[C@@H](c2ccc(Cl)cc2)[C@@H]2CCCc3[se]nnc32)cc1 | 12.5 µg/mL (≈ 22.6 µM) | 15 mm | 25 µg/mL (≈ 45.2 µM) | 15 mm | 12.5 µg/mL (≈ 22.6 µM) | 15 mm | 22.5 µM (≈ 12.4 µg/mL) |  |  |
